According to paper PMC11052077, “Discovery of Dolutegravir Derivative against Liver Cancer via Inducing Autophagy and DNA Damage” (Molecules, 2024):

Key:
hepG2 cells = experiment: CCK8 cell viability assay, hepG2; format: cell-based, human; conditions: for Cell Viability (100%), 20 μM, 48 h, hepG2: hepG2, CCK8, control taken as 100%; for IC50: 48 h, hepG2, CCK8, read-out: half maximal inhibitory concentration (IC50), hepG2
Description: (§1) This study aimed to assess the anti-proliferative activity of dolutegravir-1,2,3-triazole derivatives on hepatocellular carcinoma cell lines, Huh7 and hepG2. A comprehensive CCK8 assay was employed to evaluate the impact of these compounds on cell viability, with cells treated at a concentration of 20 μM for 48 h. HRM cells, a normal cell line, were included as a control for comparative analysis.
(§2) Human hepatocellular carcinoma cell lines Huh7 and hepG2 were obtained from ATCC (Manassas, VA, USA). Cells were cultured in DMEM or RPMI 1640 medium containing 10% FBS and 1% penicillin/streptomycin at 37 °C with a 5% CO2-humidified atmosphere.
(§3) CCK8 assay was used to measure cell viability. Cells with a density of 1 × 10^4 cells/well were seeded on 96-well plates. After adhesion, cells were treated with different diluted compounds or vehicle control DMSO and continued to be cultured for 48 h or 72 h, respectively. Then, CCK8 reagent was added for one hour incubation at 37 °C with 5% CO2. Absorbance was measured using a Microplate spectrophotometer (Thermo, Waltham, MA, USA) at 450 nm. The ratio of cell viability of control was taken as 100%. […] Then, IC50 of compounds were investigated using the prism statistical software 7.0.

[1] = system: HRM cells (human renal mesangial cells); experiment: in vitro; format: cell-based; conditions: 20 µM
Description: This study aimed to assess the anti-proliferative activity of dolutegravir-1,2,3-triazole derivatives on hepatocellular carcinoma cell lines, Huh7 and hepG2. A comprehensive CCK8 assay was employed to evaluate the impact of these compounds on cell viability, with cells treated at a concentration of 20 μM for 48 h. HRM cells, a normal cell line, were included as a control for comparative analysis. […]
as §3

Huh7 cells = experiment: CCK8 cell viability assay, Huh7; format: cell-based, human; conditions: for Cell Viability (100%), 20 μM, 48 h, Huh7: Huh7, CCK8, control taken as 100%; for IC50: 48 h, Huh7, CCK8, read-out: half maximal inhibitory concentration (IC50), Huh7
Description: as §1, §2, §3

SMILES	Cell Viability (100%), 20 μM, 48 h, hepG2 (hepG2 cells) [%]	Cell Viability (100%), 20 μM, 48 h, HRM [1] [%]	Cell Viability (100%), 20 μM, 48 h, Huh7 (Huh7 cells) [%]	IC50 (hepG2 cells) [µM]	IC50 (Huh7 cells) [µM]
COc1c2n(cc(C(=O)Nc3cccc(-c4cn(-c5ccccc5F)nn4)c3)c1=O)CC1OCCC(C)N1C2=O (stereo not shown) [Compound 5a]	90.43	71.18	83.32		
COc1cc([N+](=O)[O-])ccc1-n1cc(-c2cccc(NC(=O)c3cn4c(c(OC)c3=O)C(=O)N3C(C)CCOC3C4)c2)nn1 (stereo not shown) [Compound 5b]	93.94	112.94	110.94		
COc1c2n(cc(C(=O)Nc3cccc(-c4cn(-c5ccccc5C(F)(F)F)nn4)c3)c1=O)CC1OCCC(C)N1C2=O (stereo not shown) [Compound 5c]	54.14	2.65	36.28	18.3 ± 1.14	18.7 ± 0.53
COc1c2n(cc(C(=O)Nc3cccc(-c4cn(-c5ccc(C(F)(F)F)cc5)nn4)c3)c1=O)CC1OCCC(C)N1C2=O (stereo not shown) [Compound 5d]	79.96	108.43	77.89		
COc1c2n(cc(C(=O)Nc3cccc(-c4cn(-c5cccc(C)c5)nn4)c3)c1=O)CC1OCCC(C)N1C2=O (stereo not shown) [Compound 5f]	12.96	66.43	15.92	12.1 ± 0.77	8.63 ± 0.33
COc1c2n(cc(C(=O)Nc3cccc(-c4cn(-c5ccc(F)cc5)nn4)c3)c1=O)CC1OCCC(C)N1C2=O (stereo not shown) [Compound 5g]	105.19	103.67	90.24		
CCOc1ccc(-n2cc(-c3cccc(NC(=O)c4cn5c(c(OC)c4=O)C(=O)N4C(C)CCOC4C5)c3)nn2)cc1 (stereo not shown) [Compound 5h]	90.41	102.23	72.06		
COc1c2n(cc(C(=O)Nc3cccc(-c4cn(-c5ccccc5OC(F)(F)F)nn4)c3)c1=O)CC1OCCC(C)N1C2=O (stereo not shown) [Compound 5i]	24.84	70.03	7.95	9.43 ± 0.7	12.3 ± 0.26
COc1ccc(-n2cc(-c3cccc(NC(=O)c4cn5c(c(OC)c4=O)C(=O)N4C(C)CCOC4C5)c3)nn2)cc1OC (stereo not shown) [Compound 5j]	77.13	108.54	65.52		
CCc1ccccc1-n1cc(-c2cccc(NC(=O)c3cn4c(c(OC)c3=O)C(=O)N3C(C)CCOC3C4)c2)nn1 (stereo not shown) [Compound 5k]	50.62	0.81	48.55	15.2 ± 1.15	16.9 ± 0.48
COc1cccc(-n2cc(-c3cccc(NC(=O)c4cn5c(c(OC)c4=O)C(=O)N4C(C)CCOC4C5)c3)nn2)c1 (stereo not shown) [Compound 5l]	33.91	94.97	46.30	10.6 ± 0.67	7.62 ± 1.03
CCc1ccc(-n2cc(-c3cccc(NC(=O)c4cn5c(c(OC)c4=O)C(=O)N4C(C)CCOC4C5)c3)nn2)cc1 (stereo not shown) [Compound 5m]	77.30	101.13	36.41		
COc1c2n(cc(C(=O)Nc3cccc(-c4cn(-c5ccc(C(C)(C)C)cc5)nn4)c3)c1=O)CC1OCCC(C)N1C2=O (stereo not shown) [Compound 5n]	77.30	108.06	54.04		
COc1c2n(cc(C(=O)Nc3cccc(-c4cn(-c5ccccc5)nn4)c3)c1=O)CC1OCCC(C)N1C2=O (stereo not shown) [Compound 5o]	80.21	100.28	67.64		
COc1c2n(cc(C(=O)Nc3cccc(-c4cn(-c5cc(C(F)(F)F)ccc5C(F)(F)F)nn4)c3)c1=O)CC1OCCC(C)N1C2=O (stereo not shown) [Compound 5q]	38.49	91.40	12.00	18.5 ± 2.85	7.85 ± 0.9
COc1c2n(cc(C(=O)Nc3cccc(-c4cn(-c5cc(C(F)(F)F)cc(C(F)(F)F)c5)nn4)c3)c1=O)CC1OCCC(C)N1C2=O (stereo not shown) [Compound 5r]	78.52	101.27	80.13		
COc1ccccc1-n1cc(-c2cccc(NC(=O)c3cn4c(c(OC)c3=O)C(=O)N3C(C)CCOC3C4)c2)nn1 (stereo not shown) [Compound 5t]	41.93	73.24	29.33	11.2 ± 0.32	10.8 ± 0.85
COc1c2n(cc(C(=O)Nc3cccc(-c4cn(-c5ccccc5Br)nn4)c3)c1=O)CC1OCCC(C)N1C2=O (stereo not shown) [Compound 5u]	47.16	100.10	33.46	34.7 ± 5.13	12.6 ± 0.58
COc1c2n(cc(C(=O)Nc3cccc(-c4cn(-c5ccccc5Cl)nn4)c3)c1=O)CC1OCCC(C)N1C2=O (stereo not shown) [Compound 5v]	38.75	95.10	37.66	24.8 ± 2.21	42.2 ± 1.1
COc1c2n(cc(C(=O)Nc3cccc(-c4cn(-c5ccccc5I)nn4)c3)c1=O)CC1OCCC(C)N1C2=O (stereo not shown) [Compound 5w]	54.35	92.77	49.87	25.7 ± 0.42	15.9 ± 0.31
COc1c2n(cc(C(=O)Nc3cccc(-c4cn(-c5ccc(C)cc5)nn4)c3)c1=O)CC1OCCC(C)N1C2=O (stereo not shown) [Compound 5y]	69.40	103.82	79.52		
COc1c2n(cc(C(=O)Nc3cccc(-c4cn(-c5c(C)cc(C)cc5C)nn4)c3)c1=O)CC1OCCC(C)N1C2=O (stereo not shown) [Compound 5z]	63.22	100.35	66.22		
COc1c2n(cc(C(=O)Nc3cccc(-c4cn(Cc5cc(Br)cc(Br)c5)nn4)c3)c1=O)CC1OCCC(C)N1C2=O (stereo not shown) [Compound 6a]	66.48	84.46	75.97		
COc1c2n(cc(C(=O)Nc3cccc(-c4cn(Cc5ccccc5)nn4)c3)c1=O)CC1OCCC(C)N1C2=O (stereo not shown) [Compound 6b]	57.81	99.53	68.00		
COc1c2n(cc(C(=O)Nc3cccc(-c4cn(Cc5ccccc5Br)nn4)c3)c1=O)CC1OCCC(C)N1C2=O (stereo not shown) [Compound 6c]	46.80	105.55	39.13	27.8 ± 2.94	13.9 ± 0.81
COc1cccc(Cn2cc(-c3cccc(NC(=O)c4cn5c(c(OC)c4=O)C(=O)N4C(C)CCOC4C5)c3)nn2)c1 (stereo not shown) [Compound 6d]	65.65	98.59	72.78		
